Assay results as given in ChEMBL document CHEMBL5338717, “Discovery of novel PDE4 inhibitors targeting the M-pocket from natural mangostanin with improved safety for the treatment of Inflammatory Bowel Diseases” (Eur J Med Chem, 2022).
The source made the active and inactive calls. No cut-off for these calls is given here.

Tests used:
[1] = molecular target: cGMP-dependent 3',5'-cyclic phosphodiesterase (Homo sapiens, UniProt O00408); assay: Inhibition of recombinant PDE2A (580 to 919 residues) (unknown origin) expressed in Escherichia coli BL21 using [3H]cGMP as substrate incubated for 15 mins by liquid scintillation method
cGMP-dependent 3',5'-cyclic phosphodiesterase, sequence (O00408 whole entry, the tested form may be a part): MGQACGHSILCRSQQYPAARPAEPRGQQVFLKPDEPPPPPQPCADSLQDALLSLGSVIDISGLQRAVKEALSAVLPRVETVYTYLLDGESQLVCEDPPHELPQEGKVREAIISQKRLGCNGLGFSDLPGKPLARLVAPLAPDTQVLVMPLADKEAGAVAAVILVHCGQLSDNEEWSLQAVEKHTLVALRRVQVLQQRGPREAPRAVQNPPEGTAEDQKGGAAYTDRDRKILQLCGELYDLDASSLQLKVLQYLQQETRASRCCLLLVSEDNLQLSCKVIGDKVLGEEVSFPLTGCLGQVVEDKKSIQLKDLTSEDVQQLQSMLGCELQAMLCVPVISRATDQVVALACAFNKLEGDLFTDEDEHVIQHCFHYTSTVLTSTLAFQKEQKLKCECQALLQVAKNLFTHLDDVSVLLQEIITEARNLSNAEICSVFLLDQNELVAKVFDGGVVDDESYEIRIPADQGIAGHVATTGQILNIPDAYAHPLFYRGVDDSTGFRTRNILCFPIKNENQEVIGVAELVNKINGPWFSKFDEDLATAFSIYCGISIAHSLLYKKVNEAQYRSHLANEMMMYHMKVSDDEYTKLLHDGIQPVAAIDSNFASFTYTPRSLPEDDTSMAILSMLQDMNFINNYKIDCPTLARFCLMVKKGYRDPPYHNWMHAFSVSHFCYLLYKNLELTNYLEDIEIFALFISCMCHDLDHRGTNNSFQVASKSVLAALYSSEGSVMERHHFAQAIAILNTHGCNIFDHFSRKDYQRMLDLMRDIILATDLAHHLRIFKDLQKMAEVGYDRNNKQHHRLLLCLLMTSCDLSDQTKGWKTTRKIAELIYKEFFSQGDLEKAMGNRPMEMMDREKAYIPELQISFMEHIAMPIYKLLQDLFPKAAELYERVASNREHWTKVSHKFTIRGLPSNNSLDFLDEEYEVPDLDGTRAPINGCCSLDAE

[2] = Clearance in Sprague-Dawley rat at 2.5 mg/kg, iv; type: ADME, organism-based; settings: in vivo
[3] = Selectivity index, ratio of IC50 for inhibition of recombinant PDE10A2 (449 to 770 residues) (unknown origin) expressed in Escherichia coli BL21 to IC50 for inhibition of recombinant PDE4D2 (86 to 413 residues) (unknown origin) expressed in Escherichia coli BL21
Mus musculus [4] = assay: Anti-inflammatory bowel disease activity in DSS-induced inflammatory bowel disease C57BL/6 mouse model assessed as decrease in IL-6 mRNA expression level in colon at 5 mg/kg, iv BID and measured after 8 days by real-time PCR analysis; type: functional, organism-based; settings: time 8.0 day
Cytochrome P450 2D6 = Cytochrome P450 2D6 (Homo sapiens, UniProt P10635); assay: Inhibition of human CYP2D6 in human hepatocytes; type: ADME, cell-based, Hepatocyte
Cytochrome P450 2D6, sequence (P10635 whole entry): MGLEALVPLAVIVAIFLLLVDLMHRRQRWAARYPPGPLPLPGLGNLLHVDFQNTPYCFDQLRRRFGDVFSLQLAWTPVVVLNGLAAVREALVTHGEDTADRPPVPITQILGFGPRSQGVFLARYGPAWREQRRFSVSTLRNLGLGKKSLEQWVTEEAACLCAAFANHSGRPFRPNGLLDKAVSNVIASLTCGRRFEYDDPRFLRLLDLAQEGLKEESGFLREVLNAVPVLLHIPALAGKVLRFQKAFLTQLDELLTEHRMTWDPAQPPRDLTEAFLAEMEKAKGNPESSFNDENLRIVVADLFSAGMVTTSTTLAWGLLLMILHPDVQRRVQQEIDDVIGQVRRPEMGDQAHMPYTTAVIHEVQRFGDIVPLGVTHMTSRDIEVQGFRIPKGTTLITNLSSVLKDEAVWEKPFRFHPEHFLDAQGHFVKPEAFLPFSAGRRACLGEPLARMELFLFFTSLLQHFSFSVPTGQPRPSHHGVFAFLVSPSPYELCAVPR

[5] = Toxicity in twelve hrs fasted Beagle dog assessed as emesis at 10 mg/kg,po and measured upto 180 mins; type: organism-based, Canis lupus familiaris; settings: in vivo, 3 h
[6] = molecular target: 3',5'-cyclic-AMP phosphodiesterase 4D (Homo sapiens, UniProt Q08499); assay: Inhibition of recombinant PDE4D2 (86 to 413 residues) (unknown origin) expressed in Escherichia coli BL21 using [3H]cAMP as substrate incubated for 15 mins by liquid scintillation method
3',5'-cyclic-AMP phosphodiesterase 4D, sequence (Q08499 whole entry, the tested form may be a part): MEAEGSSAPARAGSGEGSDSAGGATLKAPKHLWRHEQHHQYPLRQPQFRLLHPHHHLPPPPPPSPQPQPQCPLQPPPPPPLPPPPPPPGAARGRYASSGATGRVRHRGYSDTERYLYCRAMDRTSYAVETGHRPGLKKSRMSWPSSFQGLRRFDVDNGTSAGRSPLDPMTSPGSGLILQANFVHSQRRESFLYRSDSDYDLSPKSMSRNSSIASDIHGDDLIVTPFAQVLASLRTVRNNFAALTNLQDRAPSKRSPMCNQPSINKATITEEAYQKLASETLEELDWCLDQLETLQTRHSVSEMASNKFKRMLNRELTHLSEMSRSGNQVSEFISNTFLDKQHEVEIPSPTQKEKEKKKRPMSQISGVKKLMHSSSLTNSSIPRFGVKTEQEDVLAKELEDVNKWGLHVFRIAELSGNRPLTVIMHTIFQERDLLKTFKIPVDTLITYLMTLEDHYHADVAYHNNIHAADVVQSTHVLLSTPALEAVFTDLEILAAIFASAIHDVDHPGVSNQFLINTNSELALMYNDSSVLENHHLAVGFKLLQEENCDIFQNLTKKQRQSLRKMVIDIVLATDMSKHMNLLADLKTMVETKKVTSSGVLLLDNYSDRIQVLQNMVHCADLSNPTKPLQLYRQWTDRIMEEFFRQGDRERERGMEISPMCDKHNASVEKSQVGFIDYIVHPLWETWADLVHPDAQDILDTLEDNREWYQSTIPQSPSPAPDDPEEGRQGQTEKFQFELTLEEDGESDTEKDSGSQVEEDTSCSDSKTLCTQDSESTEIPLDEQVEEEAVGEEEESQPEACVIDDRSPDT

Mus musculus [7] = assay: Anti-inflammatory bowel disease activity in DSS-induced inflammatory bowel disease C57BL/6 mouse model assessed as decrease in goblet cells in colon at 5 mg/kg, iv BID and measured after 8 days by Haematoxylin and eosin staining based microscopy; type: functional, organism-based; settings: time 8.0 day
[8] = molecular target: High affinity cGMP-specific 3',5'-cyclic phosphodiesterase 9A (Homo sapiens, UniProt O76083); assay: Inhibition of recombinant PDE9A2 (181 to 506 residues) (unknown origin) expressed in Escherichia coli BL21 using [3H]cGMP as substrate incubated for 15 mins by liquid scintillation method
[9] = Selectivity index, ratio of IC50 for inhibition of PDE5A1 (535 to 860 residues) (unknown origin) expressed in Escherichia coli BL21 to IC50 for inhibition of recombinant PDE4D2 (86 to 413 residues) (unknown origin) expressed in Escherichia coli BL21
Mus musculus [10] = assay: Anti-inflammatory bowel disease activity in DSS-induced inflammatory bowel disease C57BL/6 mouse assessed as decrease in neutrophil infiltration in colon at 5 mg/kg, iv BID and measured after 8 days by Haematoxylin and eosin staining based microscopy; type: functional, organism-based; settings: time 8.0 day
Mus musculus [11] = assay: Anti-inflammatory bowel disease activity in DSS-induced inflammatory bowel disease C57BL/6 mouse model assessed as decrease in IFN-gamma mRNA expression level in colon at 5 mg/kg, iv BID and measured after 8 days by real-time PCR analysis; type: functional, organism-based; settings: time 8.0 day
Mus musculus [12] = assay: Anti-inflammatory bowel disease activity in DSS-induced inflammatory bowel disease C57BL/6 mouse model assessed as decrease in epithelial damage in colon at 5 mg/kg, iv BID and measured after 8 days by Haematoxylin and eosin staining based microscopy; type: functional, organism-based; settings: time 8.0 day
[13] = molecular target: cAMP and cAMP-inhibited cGMP 3',5'-cyclic phosphodiesterase 10A (Homo sapiens, UniProt Q9Y233); assay: Inhibition of recombinant PDE10A2 (449 to 770 residues) (unknown origin) expressed in Escherichia coli BL21 using [3H]cAMP as substrate incubated for 15 mins by liquid scintillation method
[14] = Elimination half life in Sprague-Dawley rat at 2.5 mg/kg, iv; type: ADME, organism-based; settings: in vivo, read-out: beta t1/2 (converted)
Cytochrome P450 3A4 = Cytochrome P450 3A4 (Homo sapiens, UniProt P08684); assay: Inhibition of human CYP3A4 in human hepatocytes; type: ADME, cell-based, Hepatocyte
Cytochrome P450 2C9 = Cytochrome P450 2C9 (Homo sapiens, UniProt P11712); assay: Inhibition of human CYP2C9 in human hepatocytes; type: ADME, cell-based, Hepatocyte
Cytochrome P450 2C9, sequence (P11712 whole entry, the tested form may be a part): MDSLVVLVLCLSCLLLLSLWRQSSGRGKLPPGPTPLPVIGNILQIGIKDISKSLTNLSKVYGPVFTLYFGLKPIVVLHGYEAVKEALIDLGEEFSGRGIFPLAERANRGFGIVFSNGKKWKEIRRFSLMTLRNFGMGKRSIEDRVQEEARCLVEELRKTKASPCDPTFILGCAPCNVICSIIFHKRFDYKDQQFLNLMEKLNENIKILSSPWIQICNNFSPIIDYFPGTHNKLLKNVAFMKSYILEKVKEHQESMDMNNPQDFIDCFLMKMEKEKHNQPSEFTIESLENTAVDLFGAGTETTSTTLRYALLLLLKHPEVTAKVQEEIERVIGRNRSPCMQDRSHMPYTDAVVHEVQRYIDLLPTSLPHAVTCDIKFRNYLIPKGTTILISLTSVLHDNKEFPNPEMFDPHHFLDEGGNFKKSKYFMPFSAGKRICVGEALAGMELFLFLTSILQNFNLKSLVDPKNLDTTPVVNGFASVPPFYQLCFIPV

[15] = Selectivity index, ratio of IC50 for inhibition of recombinant PDE2A (580 to 919 residues) (unknown origin) expressed in Escherichia coli BL21 to IC50 for inhibition of recombinant PDE4D2 (86 to 413 residues) (unknown origin) expressed in Escherichia coli BL21
Mus musculus [16] = assay: Anti-inflammatory bowel disease activity in DSS-induced inflammatory bowel disease C57BL/6 mouse model assessed as decrease in diarrhoea by measuring disease activity index score at 5 mg/kg, iv BID and measured upto 8 days; type: functional, organism-based; settings: time <= 8.0 day
Mus musculus [17] = assay: Anti-inflammatory bowel disease activity in DSS-induced inflammatory bowel disease C57BL/6 mouse model assessed as decrease in IL-10 mRNA expression level in colon at 5 mg/kg, iv BID and measured after 8 days by real-time PCR analysis; type: functional, organism-based; settings: time 8.0 day
[18] = molecular target: Dual specificity calcium/calmodulin-dependent 3',5'-cyclic nucleotide phosphodiesterase 1C (Homo sapiens, UniProt Q14123); assay: Inhibition of recombinant PDE1C (147 to 531 residues) (unknown origin) expressed in Escherichia coli BL21 using [3H]cGMP as substrate incubated for 15 mins by liquid scintillation method
Dual specificity calcium/calmodulin-dependent 3',5'-cyclic nucleotide phosphodiesterase 1C, sequence (Q14123 whole entry, the tested form may be a part): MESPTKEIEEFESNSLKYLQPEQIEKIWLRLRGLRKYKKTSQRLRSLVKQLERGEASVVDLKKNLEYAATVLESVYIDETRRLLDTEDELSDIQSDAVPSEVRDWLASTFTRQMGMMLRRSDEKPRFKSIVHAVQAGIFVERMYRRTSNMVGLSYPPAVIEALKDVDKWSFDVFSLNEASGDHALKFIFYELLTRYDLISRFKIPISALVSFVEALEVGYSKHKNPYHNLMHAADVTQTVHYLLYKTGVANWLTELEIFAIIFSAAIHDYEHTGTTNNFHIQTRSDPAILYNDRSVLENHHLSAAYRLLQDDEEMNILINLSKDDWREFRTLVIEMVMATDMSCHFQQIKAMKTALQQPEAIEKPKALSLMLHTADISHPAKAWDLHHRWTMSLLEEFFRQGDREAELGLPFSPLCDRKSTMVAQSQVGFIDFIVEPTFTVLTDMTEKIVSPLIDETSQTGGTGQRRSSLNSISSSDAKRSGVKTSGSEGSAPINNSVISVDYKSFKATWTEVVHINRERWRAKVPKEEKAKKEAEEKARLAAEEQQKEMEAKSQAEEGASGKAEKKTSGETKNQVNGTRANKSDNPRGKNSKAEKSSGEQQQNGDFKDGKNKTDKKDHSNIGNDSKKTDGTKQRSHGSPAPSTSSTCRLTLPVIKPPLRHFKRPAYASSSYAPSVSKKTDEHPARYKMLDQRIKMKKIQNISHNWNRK

Mus musculus [19] = assay: Anti-inflammatory bowel disease activity in DSS-induced inflammatory bowel disease C57BL/6 mouse model assessed as decrease in rectal bleeding by measuring disease activity index score at 5 mg/kg, iv BID and measured upto 8 days by Haem-occult test; type: functional, organism-based; settings: time <= 8.0 day
Mus musculus [20] = assay: Anti-inflammatory bowel disease activity in DSS-induced inflammatory bowel disease C57BL/6 mouse model assessed as decrease in body weight loss by measuring disease activity index score at 5 mg/kg, iv BID and measured upto 8 days; type: functional, organism-based; settings: time <= 8.0 day
[21] = molecular target: cGMP-inhibited 3',5'-cyclic phosphodiesterase 3A (Homo sapiens, UniProt Q14432); assay: Inhibition of recombinant PDE3A (679 to 1087 residues) (unknown origin) expressed in Escherichia coli BL21 using [3H]cAMP as substrate incubated for 15 mins by liquid scintillation method
cGMP-inhibited 3',5'-cyclic phosphodiesterase 3A, sequence (Q14432 whole entry, the tested form may be a part): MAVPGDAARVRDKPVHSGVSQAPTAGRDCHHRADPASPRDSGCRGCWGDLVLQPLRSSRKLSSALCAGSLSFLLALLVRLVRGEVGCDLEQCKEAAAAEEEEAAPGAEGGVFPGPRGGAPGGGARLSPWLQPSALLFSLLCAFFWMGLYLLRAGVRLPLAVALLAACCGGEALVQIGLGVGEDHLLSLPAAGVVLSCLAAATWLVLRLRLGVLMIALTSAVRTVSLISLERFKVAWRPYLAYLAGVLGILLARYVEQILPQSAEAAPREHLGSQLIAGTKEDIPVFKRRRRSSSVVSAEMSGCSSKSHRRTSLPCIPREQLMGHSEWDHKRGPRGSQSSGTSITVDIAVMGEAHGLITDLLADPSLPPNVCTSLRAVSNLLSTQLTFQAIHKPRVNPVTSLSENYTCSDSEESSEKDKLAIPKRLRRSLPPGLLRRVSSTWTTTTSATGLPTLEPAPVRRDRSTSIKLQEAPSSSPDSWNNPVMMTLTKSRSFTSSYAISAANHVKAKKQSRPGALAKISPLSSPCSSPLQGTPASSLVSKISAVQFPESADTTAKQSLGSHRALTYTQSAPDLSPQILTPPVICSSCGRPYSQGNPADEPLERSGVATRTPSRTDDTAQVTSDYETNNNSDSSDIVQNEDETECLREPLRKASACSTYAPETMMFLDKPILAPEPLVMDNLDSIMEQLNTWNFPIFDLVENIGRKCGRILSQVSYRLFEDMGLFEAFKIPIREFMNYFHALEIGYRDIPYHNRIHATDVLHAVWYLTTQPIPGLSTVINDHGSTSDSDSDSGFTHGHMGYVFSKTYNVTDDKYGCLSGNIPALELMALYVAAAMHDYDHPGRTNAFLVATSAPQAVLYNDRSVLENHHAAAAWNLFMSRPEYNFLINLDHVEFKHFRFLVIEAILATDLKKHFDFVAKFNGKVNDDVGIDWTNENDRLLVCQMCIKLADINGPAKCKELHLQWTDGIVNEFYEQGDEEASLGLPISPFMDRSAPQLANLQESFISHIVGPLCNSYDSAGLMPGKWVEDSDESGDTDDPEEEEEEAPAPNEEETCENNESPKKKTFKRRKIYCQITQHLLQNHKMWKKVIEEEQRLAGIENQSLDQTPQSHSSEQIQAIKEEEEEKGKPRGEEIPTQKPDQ

[22] = Acute toxicity in mouse assessed as body weight change at 0.75 g/Kg,po; settings: in vivo, 750 mg/kg
[23] = Selectivity index, ratio of IC50 for inhibition of PDE7A1 (130 to 482 residues) (unknown origin) expressed in Escherichia coli BL21 to IC50 for inhibition of recombinant PDE4D2 (86 to 413 residues) (unknown origin) expressed in Escherichia coli BL21

With `COc1c(OCC2CC2)cc2oc3cc4c(c(OCc5ccncc5)c3c(=O)c2c1CC=C(C)C)C=CC(C)(C)O4` the IC50 [1] was > 10 µM, the clearance [2] was 6.4 mL/min/kg and the Ratio IC50 [3] was 290. For the same molecule, the Activity (Mus musculus [4]) was “Active”, the IC50 (Cytochrome P450 2D6) was > 25 µM and the Activity [5] was “Non-Toxic”. For the same molecule, the IC50 [6] was 3.5 nM, the Activity (Mus musculus [7]) was “Active” and the IC50 [8] was > 10 µM. For the same molecule, the Ratio IC50 [9] was 353, the Activity (Mus musculus [10]) was “Active” and the Activity (Mus musculus [11]) was “Active”. The Activity (Mus musculus [12]) was “Active”, the IC50 [13] was 1020 nM and the half-life [14] was 251 min. The IC50 (Cytochrome P450 3A4) was 6.1 µM, the IC50 (Cytochrome P450 2C9) was 4.1 µM and the Ratio IC50 [15] was > 2800. For the same molecule, the Activity (Mus musculus [16]) was “Active”, the Activity (Mus musculus [17]) was “Active” and the IC50 [18] was > 10 µM. The Activity (Mus musculus [19]) was “Active”, the Activity (Mus musculus [20]) was “Active” and the IC50 [21] was > 10 µM. The Activity [22] was “Non-Toxic” and the Ratio IC50 [23] was 4.27.
